For 40 molecules, IC50 and inhibition results are on record in ChEMBL document CHEMBL1126955, “Substituted thiopyrano[2,3,4-c,d]indoles as potent, selective, and orally active inhibitors of 5-lipoxygenase. Synthesis and biological evaluation of L-691,816” (J Med Chem, 1993).

What is called IC50 is the concentration that inhibits the measured activity by half. Low readings indicate inhibition by little substance, high ones a need for much substance. One may read the inhibition as the change of the read-out against control, counted positive when it falls.

The structures appear in SMILES notation.

The target of assay [1] is T1, Polyunsaturated fatty acid 5-lipoxygenase (Rattus norvegicus, UniProt P12527).
T1 sequence (P12527 whole entry): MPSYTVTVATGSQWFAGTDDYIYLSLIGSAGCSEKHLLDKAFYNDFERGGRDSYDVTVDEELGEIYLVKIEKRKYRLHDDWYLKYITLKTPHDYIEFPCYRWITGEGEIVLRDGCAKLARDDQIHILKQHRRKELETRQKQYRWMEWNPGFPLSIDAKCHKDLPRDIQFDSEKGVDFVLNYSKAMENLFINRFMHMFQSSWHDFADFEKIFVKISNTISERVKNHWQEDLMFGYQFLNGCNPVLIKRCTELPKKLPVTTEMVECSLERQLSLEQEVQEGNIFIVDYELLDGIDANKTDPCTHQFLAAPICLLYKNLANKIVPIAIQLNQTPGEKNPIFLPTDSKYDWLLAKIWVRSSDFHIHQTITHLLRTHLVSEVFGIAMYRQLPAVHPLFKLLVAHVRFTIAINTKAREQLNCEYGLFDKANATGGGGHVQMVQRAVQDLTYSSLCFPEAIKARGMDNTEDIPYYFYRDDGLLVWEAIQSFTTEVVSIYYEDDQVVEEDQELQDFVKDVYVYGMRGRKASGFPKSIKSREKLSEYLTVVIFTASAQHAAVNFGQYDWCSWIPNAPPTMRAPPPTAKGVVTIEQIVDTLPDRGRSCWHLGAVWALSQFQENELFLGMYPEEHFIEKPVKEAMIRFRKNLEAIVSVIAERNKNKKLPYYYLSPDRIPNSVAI
Kind of assay: In vitro test for inhibition of 5-lipoxygenase in cell-free preparations from rat PMN leukocytes.

Assay [2] addresses T2, Polyunsaturated fatty acid 5-lipoxygenase (Homo sapiens, UniProt P09917).
T2 sequence (P09917 whole entry): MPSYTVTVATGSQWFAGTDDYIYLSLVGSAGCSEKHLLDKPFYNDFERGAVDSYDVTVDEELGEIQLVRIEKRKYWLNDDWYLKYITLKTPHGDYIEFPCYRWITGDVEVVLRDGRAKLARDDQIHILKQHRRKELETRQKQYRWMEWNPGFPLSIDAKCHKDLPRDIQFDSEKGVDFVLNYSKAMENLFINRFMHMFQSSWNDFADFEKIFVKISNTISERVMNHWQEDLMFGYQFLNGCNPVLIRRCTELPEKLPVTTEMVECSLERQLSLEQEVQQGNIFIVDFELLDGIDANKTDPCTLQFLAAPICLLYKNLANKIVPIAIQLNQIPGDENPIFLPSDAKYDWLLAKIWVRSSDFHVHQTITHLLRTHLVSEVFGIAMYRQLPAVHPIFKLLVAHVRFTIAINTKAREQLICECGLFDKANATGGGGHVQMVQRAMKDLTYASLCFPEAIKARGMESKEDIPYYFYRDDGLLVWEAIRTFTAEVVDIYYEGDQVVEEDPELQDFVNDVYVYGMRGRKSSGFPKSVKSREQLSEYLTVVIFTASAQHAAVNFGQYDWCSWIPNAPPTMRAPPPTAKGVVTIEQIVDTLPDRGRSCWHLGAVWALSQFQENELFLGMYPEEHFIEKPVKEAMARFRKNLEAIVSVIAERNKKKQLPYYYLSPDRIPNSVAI
Kind of assay: In vitro inhibition of LTB4 biosynthesis in [Ca(2+)]-ionophore-activated human polymorphonuclear leukocytes. Format: functional.

For a further assay, the species on record is Homo sapiens. Kind of assay: Tested in vitro for the inhibition of LTB4 biosynthesis in [Ca(2+)]-ionophore-activated human polymorphonuclear leukocytes; (Result of a single titration). Format: functional.
Assay [3] deals with T3, Arachidonate 5-lipoxygenase-activating protein (Homo sapiens, UniProt P20292).
T3 sequence (P20292 whole entry): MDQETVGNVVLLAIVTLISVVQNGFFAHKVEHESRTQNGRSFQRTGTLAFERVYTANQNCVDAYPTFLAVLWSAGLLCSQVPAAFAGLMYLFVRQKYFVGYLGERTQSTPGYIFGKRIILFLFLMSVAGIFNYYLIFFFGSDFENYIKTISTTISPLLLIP
Nature of the assay: Tested for inhibition of leukotriene biosynthesis by binding to 5-lipoxygenase activating protein.

In assay [4] the target is T4, Polyunsaturated fatty acid 5-lipoxygenase (Rattus norvegicus) (UniProt P12527).
T4 sequence (whole entry): T1 sequence (P12527 whole entry)
Nature of the assay: Tested in vitro for the inhibition of 5-lipoxygenase in cell-free preparations from rat PMN leukocytes. The note with it: concentration not given here.

Regarding `CC1(C)Cc2c(OCc3ccc(-c4ccccc4)cn3)ccc3c2c(c(CC(C)(C)C(=O)O)n3Cc2ccc(Cl)cc2)S1`, the values for the IC50 in assay [1] and in assay [2] were 3000 nM and 88 nM, respectively.
For the molecule `CC1Cc2c(SCc3ccc(-c4ccccc4)cn3)ccc3c2c(c(CC(C)(C)Cc2nnn[nH]2)n3Cc2ccc(Cl)cc2)S1` (centres undefined), the IC50 in assay [1] was found to be 120 nM; in assay [2], 11 nM.
As to `C[C@H]1Cc2c(OCc3ccc(-c4ccccc4)cn3)ccc3c2c(c(CC(C)(C)C(=O)O)n3Cc2ccc(Cl)cc2)[S+]1[O-]` (some centres undefined), the IC50 was 8000 nM in assay [1] and over 2000 nM in the assay listed under Homo sapiens.
In the case of `CC1Cc2c(OCc3ccc(-c4ccccc4)cn3)ccc3c2c(c(CC(C)(C)C(=O)O)n3Cc2ccc(-c3ccccc3)cn2)S1` (centres undefined), the IC50 in assay [1] was 30 nM; in assay [2], 16 nM.
On to `COc1ccc(COc2ccc3c4c2CC(C)Sc4c(CC(C)(C)C(=O)O)n3Cc2ccc(Cl)cc2)nc1` (centres undefined), for which the IC50 in assay [3] stood at 40 nM; in assay [1], 400 nM; in assay [2], 12 nM.
Take `CCC1Cc2c(OCc3ccc(-c4ccccc4)cn3)ccc3c2c(c(CC(C)(C)C(=O)O)n3Cc2ccc(Cl)cc2)S1` (centres undefined): the results for the IC50 in assay [1] and in assay [2] were 130 nM and 33 nM, respectively.
In turn, `CC1Cc2c(OCc3ccc(-c4ccccc4)cn3)ccc3c2c(c(CC(C)(C)C(=O)O)n3Cc2ccc(Cl)cc2)S1` (centres undefined) yielded an IC50 in assay [2] of 22 nM.
As for `CC1Cc2c(OCc3cc4ccccc4cn3)ccc3c2c(c(CC(C)(C)C(=O)O)n3Cc2ccc(Cl)cc2)S1` (centres undefined), the figures for the IC50 in assay [3], in assay [1] and in assay [2] were 390 nM, 400 nM and 20 nM, respectively.
For the molecule `CC1Cc2c(OCc3ccc(-c4ccccc4)cn3)ccc3c2c(c(CC(C)(C)CCC(=O)O)n3Cc2ccc(Cl)cc2)S1` (centres undefined), the results for the IC50 in assay [1] and in assay [2] were 130 nM and 19 nM, respectively.
Turning to `CC1Cc2c(OCc3ccc4ccccc4n3)ccc3c2c(c(CC(C)(C)C(=O)O)n3Cc2ccc(Cl)cc2)S1` (centres undefined), the IC50 in assay [1] was 600 nM; in assay [2] it was 3 nM.
For `CC1Cc2c(OCc3ccc(-c4ccccc4)cn3)ccc3c2c(c(CC(=O)O)n3Cc2ccc(Cl)cc2)S1` (centres undefined), the IC50 in assay [1] is 200 nM; in assay [2] it was 37 nM.
On the same counts, the results for `CSc1c(CC(C)(C)C(=O)O)n(Cc2ccc(Cl)cc2)c2ccc(OCc3ccc(-c4ccccc4)cn3)cc12` are 600 nM and 170 nM.
Regarding `CC1Cc2c(OCc3ccc(-c4ccccc4)cn3)ccc3c2c(c(CC(C)(C)C(=O)O)n3CCCc2ccccc2)S1` (centres undefined), the IC50 in assay [1] turned out to be 35 nM; in assay [2], 23 nM.
In turn, `CC1Cc2c(OCc3ccc(-c4ccccc4)cn3)ccc3c2c(c(CC(C)(C)CC(N)=O)n3Cc2ccc(Cl)cc2)S1` (centres undefined) gave an IC50 in the assay listed under Homo sapiens of 1500 nM.
With `CC1Cc2c(OCc3ccc(-c4ccccc4)cn3)ccc3c2c(c(CC(C)(C)C(=O)O)n3Cc2ccc(Cl)cc2)S1(=O)=O` (centres undefined), the IC50 came out at 320 nM in assay [1] and 210 nM in assay [2].
Take `CC(C)(Cc1c2c3c(c(OCc4ccc(-c5ccccc5)cn4)ccc3n1Cc1ccc(Cl)cc1)CCCS2)C(=O)O`: the inhibition in assay [4] worked out at 20%. The molecule further registered an IC50 in assay [2] of 160 nM.
On to `CC1Cc2c(OCc3ccc(-c4ccccc4)cn3)ccc3[nH]c(CC(C)(C)C(=O)O)c(c23)S1` (centres undefined), for which the inhibition in assay [4] was 23%. In assay [2], this molecule showed an IC50 of 500 nM.
Take `CC(C)(Cc1c2c3c(c(OCc4ccc(-c5ccccc5)cn4)ccc3n1Cc1ccc(Cl)cc1)CCS2)C(=O)O`: the IC50 in assay [1] stood at 200 nM; in assay [2] it was 100 nM.
Molecule `CC1Cc2c(OCc3ccc(-c4ccccc4)cn3)ccc3c2c(c(CC(C)(C)C(=O)O)n3C)S1` (centres undefined) returned an IC50 in assay [2] of 300 nM.
Regarding `CC1Cc2c(OCc3ccc(-c4ccccc4)cn3)ccc3c2c(c(CC(C)(C)CC(=O)N(C)O)n3Cc2ccc(Cl)cc2)S1` (centres undefined), in the assay filed under Homo sapiens, 500 nM corresponded to half-maximal inhibition (IC50).
As to `CC1Cc2c(OCc3cc(-c4ccccc4)ccn3)ccc3c2c(c(CC(C)(C)C(=O)O)n3Cc2ccc(Cl)cc2)S1` (centres undefined), the IC50 in assay [1] is 2000 nM; in assay [2] it was 80 nM.
In the case of `C[C@@H]1Cc2c(OCc3ccc(-c4ccccc4)cn3)ccc3c2c(c(CC(C)(C)C(=O)O)n3Cc2ccc(Cl)cc2)[S+]1[O-]` (some centres undefined), the results for the IC50 in assay [1] and in assay [2] were 330 nM and 830 nM, respectively.
For `CCCCn1c(CC(C)(C)C(=O)O)c2c3c(c(OCc4ccc(-c5ccccc5)cn4)ccc31)CC(C)S2` (centres undefined), the IC50 in assay [1] was found to be 130 nM; in assay [2] it was 95 nM.
Take `CC1Cc2c(OCc3cccc(-c4ccccc4)n3)ccc3c2c(c(CC(C)(C)C(=O)O)n3Cc2ccc(Cl)cc2)S1` (centres undefined): the IC50 was determined as 2500 nM in assay [1] and 27 nM in assay [2].
Take `CC1Cc2c(OCc3ccc(-c4ccccc4)cn3)ccc3c2c(c(CC(C)(C)C(=O)O)n3Cc2ccc(S(C)(=O)=O)cc2)S1` (centres undefined): the IC50 amounted to 350 nM in assay [1] and 420 nM in assay [2].
On to `COc1cccc(Cn2c(CC(C)(C)C(=O)O)c3c4c(c(OCc5ccc(-c6ccccc6)cn5)ccc42)CC(C)S3)c1` (centres undefined), for which the values for the IC50 in assay [1] and in assay [2] were 40 nM and 28 nM, respectively.
As for `CCCCc1ccc(COc2ccc3c4c2CC(C)Sc4c(CC(C)(C)C(=O)O)n3Cc2ccc(Cl)cc2)nc1` (centres undefined), the IC50 in assay [1] is 500 nM; in assay [2], 42 nM.
Take `CC1Cc2c(OCc3ccc(-c4ccccc4)cn3)ccc3c2c(c(CC(C)(C)C(=O)O)n3Cc2ccccn2)S1` (centres undefined): the IC50 in assay [1] is 45 nM; in assay [2] it was 110 nM.
Regarding `CC1Cc2c(OCc3ccc(-c4ccccc4)cc3)ccc3c2c(c(CC(C)(C)C(=O)O)n3Cc2ccc(Cl)cc2)S1` (centres undefined), the results for the IC50 in assay [1] and in assay [2] were 1000 nM and 165 nM, respectively.
For `CC1Cc2c(OCc3ccc(-c4ccccc4)cn3)ccc3c2c(c(C(=O)O)n3Cc2ccc(Cl)cc2)S1` (centres undefined), the results for the IC50 in assay [1] and in assay [2] were 2000 nM and 97 nM, respectively.
Turning to `CC1Cc2c(OCc3ccc(-c4ccccc4)cn3)ccc3c2c(c(CCC(C)(C)C(=O)O)n3Cc2ccc(Cl)cc2)S1` (centres undefined), the IC50 in assay [1] was 330 nM; in assay [2], 23 nM.
Consider `CC1Cc2c(OCc3ccc(-c4ccccc4)cn3)ccc3c2c(c(CC(C)(C)C(=O)O)n3C(=O)c2ccccc2)S1` (centres undefined), for which the IC50 turned out to be 140 nM in assay [1] and 60 nM in the assay listed under Homo sapiens.
Regarding `CC1Cc2c(OCCc3ccc(-c4ccccc4)cn3)ccc3c2c(c(CC(C)(C)Cc2nnn[nH]2)n3Cc2ccc(Cl)cc2)S1` (centres undefined), the IC50 in assay [1] was 1200 nM; in assay [2], 46 nM.
With `CC1Cc2c(OCc3ccc(-c4ccccc4)cn3)ccc3c2c(c(CC(C)(C)CC(=O)NS(=O)(=O)C(F)(F)F)n3Cc2ccc(Cl)cc2)S1` (centres undefined), the IC50 in assay [1] came out at 67 nM; in assay [2] it was 125 nM.
On to `COc1ccc(Cn2c(CC(C)(C)C(=O)O)c3c4c(c(OCc5ccc(-c6ccccc6)cn5)ccc42)CC(C)S3)cc1` (centres undefined), for which the IC50 came out at 40 nM in assay [1] and 28 nM in assay [2].
With `CC1Cc2c(OCc3cccs3)ccc3c2c(c(CC(C)(C)C(=O)O)n3Cc2ccc(Cl)cc2)S1` (centres undefined), the results for the IC50 in assay [1] and in assay [2] were 2000 nM and 28 nM, respectively.
For `CC1Cc2c(OCc3ccc(C#N)cn3)ccc3c2c(c(CC(C)(C)C(=O)O)n3Cc2ccc(Cl)cc2)S1` (centres undefined), the IC50 in assay [1] was 350 nM; in assay [2], 66 nM.
On the same counts, the results for `CC1Cc2c(OCc3ccc(-c4ccccc4)cn3)ccc3c2c(c(CC(C)(C)C(=O)O)n3CC2CCCCC2)S1` (centres undefined) are 35 nM and 33 nM.
Consider `CC1Cc2c(OCc3ccccn3)ccc3c2c(c(CC(C)(C)C(=O)O)n3Cc2ccc(Cl)cc2)S1` (centres undefined), for which the IC50 in assay [3] came to 110 nM; in assay [1], 630 nM; in assay [2] it was 35 nM.
Take `CC1Cc2c(OCc3ccc(-c4ccccc4)cn3)ccc3c2c(c(CCC(=O)O)n3Cc2ccc(Cl)cc2)S1` (centres undefined): the IC50 in assay [1] was 140 nM; in assay [2] it was 38 nM.
